Some test systems named below: NCI-H522; RXF 393; LXFL 529; HCT-116; SF-539; M14; U-251; SN12C; SK-MEL-28; UACC-257; COLO 205; TK-10; OVCAR-5; BT-549; CCRF-CEM; HOP-92; PC-3; DU-145; RPMI-8226; SR.
Holding throughout (assay): NCI anticancer screen, dose series, 48 h

Structures are written as SMILES.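 All cell lines were grown in 96-well plates and treated with compound for 48 hours. GI50 marks 50% less growth.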 The source made the active and inactive calls. Cut-off read from the data, not from the text of the source: active = GI50 up to about 1.1 µM and inactive = higher.

With `CC1=C(O)/C(=C/C(C)CCC/C(C)=C/C=C/C(C)CCCc2ccoc2)OC1=O` (stereo unspecified), the GI50 with NCI-H522 is 37.2 µM (inactive); with RXF 393, 24.7 µM (inactive); in the test with LXFL 529 it was 31.8 µM (inactive); in the test on HCT-116 it was > 10 µM (inactive); with SF-539, 30.3 µM (inactive); in the test on M14 it was 36 µM (inactive). The GI50 is 37.8 µM (inactive) with U-251; 35.3 µM (inactive) in the test with SN12C; 25 µM (inactive) in the test with SK-MEL-28; 21.7 µM (inactive) in the test on UACC-257; 35.3 µM (inactive) in the test on COLO 205; 20.9 µM (inactive) with TK-10. The GI50 in the test on OVCAR-5 is 23.8 µM (inactive).
For the molecule `N#Cc1nc(COCc2ccccc2)oc1N`, the GI50 was 29.6 µM (inactive) with BT-549; 2.97 µM (inactive) in the test on NCI-H522; 17.9 µM (inactive) with CCRF-CEM; > 100 µM (inactive) in the test with RXF 393; > 100 µM (inactive) in the test on HOP-92; > 100 µM (inactive) in the test with PC-3. In addition, the GI50 was > 100 µM (inactive) with HCT-116; > 100 µM (inactive) in the test with DU-145; > 100 µM (inactive) in the test on SF-539; 74.8 µM (inactive) with RPMI-8226; > 100 µM (inactive) in the test with M14; > 100 µM (inactive) in the test on U-251. Further, the GI50 in the test on SN12C, in the test on SR, with SK-MEL-28, in the test with UACC-257, in the test with COLO 205 and in the test with TK-10 was > 100 µM (inactive) each time. The GI50 with OVCAR-5 was > 100 µM (inactive).
For the molecule `CC(C)(C)[C@H]1CCC2(OCCO2)[C@](O)(CCCO)C1`, the GI50 with BT-549, in the test with NCI-H522, in the test on CCRF-CEM, in the test on RXF 393, in the test with HOP-92 and in the test on PC-3 was > 100 µM (inactive) throughout. The GI50 in the test with HCT-116, in the test on DU-145, with SF-539, in the test on RPMI-8226, with M14 and with U-251 was > 100 µM (inactive) in each case. Moreover, the GI50 in the test on SN12C, in the test with SR, in the test with SK-MEL-28, in the test on UACC-257, with COLO 205 and in the test with TK-10 was > 100 µM (inactive) in each case. Besides, the GI50 in the test on OVCAR-5 was > 100 µM (inactive).
Take `Clc1nc(Cl)c(Cl)c(Cl)n1`: the GI50 is 20.6 µM (inactive) in the test with BT-549; 15.9 µM (inactive) with NCI-H522; 5.15 µM (inactive) with CCRF-CEM; 18.3 µM (inactive) in the test with RXF 393; 25.5 µM (inactive) in the test on HOP-92; 16.6 µM (inactive) with PC-3. Further, the GI50 in the test on HCT-116 is 18.9 µM (inactive); in the test with DU-145, 16.7 µM (inactive); in the test on SF-539, 23 µM (inactive); in the test with RPMI-8226 it was 43.3 µM (inactive); with M14, 17 µM (inactive); in the test on U-251 it was 16.7 µM (inactive). Moreover, the GI50 was 20.6 µM (inactive) in the test with SN12C; 5.96 µM (inactive) in the test with SR; 19.6 µM (inactive) with SK-MEL-28; 16.3 µM (inactive) with UACC-257; 8.57 µM (inactive) in the test on COLO 205; 20.9 µM (inactive) in the test with TK-10. Moreover, in the test on OVCAR-5, the GI50 is 20.5 µM (inactive).
Consider `C/C(=N\NC(N)=S)C(CN1CCCCC1)C(C1=C(O)c2ccccc2OC1)c1ccccc1` (stereo unspecified), for which the GI50 in the test with BT-549 is > 100 µM (inactive); in the test with NCI-H522, > 100 µM (inactive); with CCRF-CEM it was 61.1 µM (inactive); in the test with RXF 393 it was > 100 µM (inactive); with HOP-92 it was 22.5 µM (inactive); with PC-3, > 100 µM (inactive). The GI50 was > 100 µM (inactive) in the test with HCT-116; > 100 µM (inactive) with DU-145; > 100 µM (inactive) in the test with SF-539; 35.2 µM (inactive) in the test with RPMI-8226; > 100 µM (inactive) in the test on M14; > 100 µM (inactive) in the test on U-251. The GI50 in the test with SN12C, with SR, with SK-MEL-28, in the test on UACC-257, in the test with COLO 205 and in the test on TK-10 was > 100 µM (inactive) each time. Further, in the test on OVCAR-5, the GI50 was > 100 µM (inactive).
Regarding `O/N=C1/C(=C/c2ccc3c(c2)OCO3)CCCC1C(NO)c1ccc2c(c1)OCO2` (stereo unspecified), the GI50 in the test on NCI-H522 is 17.7 µM (inactive); in the test with CCRF-CEM, 19.2 µM (inactive); in the test with RXF 393, 23.6 µM (inactive); with LXFL 529, 20 µM (inactive); in the test on HCT-116 it was 17.3 µM (inactive); with SF-539 it was 18 µM (inactive). In addition, the GI50 in the test with RPMI-8226 is 18.8 µM (inactive); in the test with M14 it was 19.5 µM (inactive); in the test on U-251 it was 20.8 µM (inactive); with SN12C, 21.3 µM (inactive); with SK-MEL-28, 21.7 µM (inactive); with UACC-257, 17.8 µM (inactive). In addition, the GI50 in the test with COLO 205 is 25.4 µM (inactive); in the test on TK-10, 26.1 µM (inactive).
For the molecule `CC(NC(NC(C)C12CC3CC(CC(C3)C1)C2)=C(C(Cl)=C(Cl)Cl)[N+](=O)[O-])C12CC3CC(CC(C3)C1)C2` (stereo unspecified), the GI50 in the test on BT-549 is 24 µM (inactive); with NCI-H522, 7.11 µM (inactive); in the test on CCRF-CEM it was 0.923 µM (active); in the test with RXF 393, 13 µM (inactive); in the test with HOP-92 it was 3.58 µM (inactive); with PC-3, 8.3 µM (inactive). Also, the GI50 was 9.04 µM (inactive) in the test with HCT-116; 45 µM (inactive) in the test on DU-145; 20.9 µM (inactive) in the test on SF-539; > 36.7 µM (inactive) in the test on RPMI-8226; 16.4 µM (inactive) in the test with M14; 3.38 µM (inactive) in the test with U-251. In addition, the GI50 is 7.59 µM (inactive) with SN12C; 3.9 µM (inactive) with SR; 26.4 µM (inactive) with SK-MEL-28; 14.5 µM (inactive) in the test with UACC-257; 8.51 µM (inactive) in the test on COLO 205; 33.3 µM (inactive) in the test on TK-10. Moreover, the GI50 in the test with OVCAR-5 is 32.1 µM (inactive).
Consider `COc1cc2c(cc1OC)-c1cc3ccc(OC)c(OC)c3c[n+]1CC2` [PALMATINE CHLORIDE], for which the GI50 with BT-549, with NCI-H522, in the test with CCRF-CEM, in the test with RXF 393, with HOP-92 and in the test on PC-3 was > 100 µM (inactive) throughout. Moreover, the GI50 in the test with HCT-116 was > 100 µM (inactive); in the test with DU-145, > 100 µM (inactive); in the test with SF-539 it was > 100 µM (inactive); in the test with RPMI-8226, > 100 µM (inactive); with M14, > 100 µM (inactive); with U-251, 27.9 µM (inactive). Also, the GI50 was > 100 µM (inactive) with SN12C; > 100 µM (inactive) in the test with SR; > 100 µM (inactive) with SK-MEL-28; 48.5 µM (inactive) in the test on UACC-257; 24.4 µM (inactive) with COLO 205; > 100 µM (inactive) in the test with TK-10. Moreover, the GI50 with OVCAR-5 was > 100 µM (inactive).

The values are drawn from ChEMBL document CHEMBL1201862, “PubChem BioAssay data set” (2004).
